Earlier results, collected in US8911781B2, “Process of manufacture of novel drug delivery system: multilayer tablet composition of thiazolidinedione and biguanides” (Inventia Healthcare Private Limited, priority 2002, dated 2014).
Structures can show the parent of a compound that is named as a salt.

Assays:
[1] = after ingestion
[2] = at steady state concentrations; parent drug

time to complete gastro-intestinal absorption [1]	plasma elimination half-life (t½) [2]	Structure (SMILES)
≤ 6 h	–	CN(C)C(=N)N=C(N)N [Metformin HCl]
–	3.3 to 4.9 h	CCc1ccc(CCOc2ccc(CC3SC(=O)NC3=O)cc2)nc1 (centres unmarked) [Pioglitazone HCl]
